From ChEMBL document CHEMBL1201862, “PubChem BioAssay data set” (2004)
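Each compound was tested at five concentrations against cells in 96-well plates for 48 hours. GI50 = concentration required for 50% inhibition of growth.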 Active and inactive are the calls of the source. Rule as the data show it: active = GI50 up to about 1.1 µM and inactive = higher.

What was measured:
Assay in all cases: DTP human tumour cell line panel, 48 h
[1] = test system: KM-20L2
[2] = test system: SK-MEL-5
[3] = test system: 786-0
[4] = test system: SF-539
[5] = test system: OVCAR-4
[6] = test system: NCI-H23
[7] = test system: NCI-H522
[8] = test system: DMS-273
[9] = test system: SN12C
[10] = test system: HOP-62
[11] = test system: HT-29
[12] = test system: A498
[13] = test system: OVCAR-5
[14] = test system: XF498
[15] = test system: IGROV-1
[16] = test system: RXF 631
[17] = test system: SK-MEL-28
[18] = test system: M14
[19] = test system: DLD-1
[20] = test system: HCT-116
[21] = test system: UACC-62
[22] = test system: LOX IMVI
[23] = test system: UO-31
[24] = test system: OVCAR-3
[25] = test system: DMS-114
[26] = test system: NCI-H460
[27] = test system: ACHN
[28] = test system: KM12
[29] = test system: SF-268
[30] = test system: M19-MEL
[31] = test system: HOP-18
[32] = test system: K562
[33] = test system: SW-620
[34] = test system: SNB-75
[35] = test system: CAKI-1
[36] = test system: LXFL 529
[37] = test system: UACC-257
[38] = test system: NCI-H226
[39] = test system: HL-60
[40] = test system: RXF 393
[41] = test system: TK-10
[42] = test system: A549
[43] = test system: HCC 2998
[44] = test system: SF-295
[45] = test system: EKVX
[46] = test system: COLO 205
[47] = test system: SNB-19
[48] = test system: RPMI-8226
[49] = test system: SNB-78
[50] = test system: CCRF-CEM
[51] = test system: Malme-3M
[52] = test system: OVCAR-8
[53] = test system: HOP-92
[54] = test system: U-251
[55] = test system: SK-OV-3
[56] = test system: SK-MEL-2
[57] = test system: MOLT-4
[58] = test system: HCT-15
[59] = test system: SR

COc1cc2c3c(c1OC)/C(=N/OS(=O)(=O)c1ccc(C)cc1)CC3N(S(=O)(=O)c1ccc(C)cc1)CC2 (configuration not stated)
GI50 [1]: > 100 µM (inactive)
GI50 [2]: > 100 µM (inactive)
GI50 [3]: > 100 µM (inactive)
GI50 [4]: > 100 µM (inactive)
GI50 [5]: > 100 µM (inactive)
GI50 [6]: > 100 µM (inactive)
GI50 [7]: > 100 µM (inactive)
GI50 [8]: > 100 µM (inactive)
GI50 [9]: > 100 µM (inactive)
GI50 [10]: > 100 µM (inactive)
GI50 [11]: > 100 µM (inactive)
GI50 [12]: > 100 µM (inactive)
GI50 [13]: > 100 µM (inactive)
GI50 [14]: > 100 µM (inactive)
GI50 [15]: > 100 µM (inactive)
GI50 [16]: 66.1 µM (inactive)
GI50 [17]: > 100 µM (inactive)
GI50 [18]: > 100 µM (inactive)
GI50 [19]: > 100 µM (inactive)
GI50 [20]: > 100 µM (inactive)
GI50 [21]: > 100 µM (inactive)
GI50 [22]: > 100 µM (inactive)
GI50 [23]: > 100 µM (inactive)
GI50 [24]: > 100 µM (inactive)
GI50 [25]: > 100 µM (inactive)
GI50 [26]: > 100 µM (inactive)
GI50 [27]: > 100 µM (inactive)
GI50 [28]: > 100 µM (inactive)
GI50 [29]: > 100 µM (inactive)
GI50 [30]: > 100 µM (inactive)
GI50 [31]: > 100 µM (inactive)
GI50 [32]: > 100 µM (inactive)
GI50 [33]: > 100 µM (inactive)
GI50 [34]: 70.5 µM (inactive)
GI50 [35]: > 100 µM (inactive)
GI50 [36]: > 100 µM (inactive)
GI50 [37]: > 100 µM (inactive)
GI50 [38]: > 100 µM (inactive)
GI50 [39]: > 100 µM (inactive)
GI50 [40]: 53.5 µM (inactive)
GI50 [41]: > 100 µM (inactive)
GI50 [42]: > 100 µM (inactive)
GI50 [43]: > 100 µM (inactive)
GI50 [44]: > 100 µM (inactive)
GI50 [45]: > 100 µM (inactive)
GI50 [46]: > 100 µM (inactive)
GI50 [47]: > 100 µM (inactive)
GI50 [48]: > 100 µM (inactive)
GI50 [49]: 41.7 µM (inactive)
GI50 [50]: > 100 µM (inactive)
GI50 [51]: > 100 µM (inactive)
GI50 [52]: 93.3 µM (inactive)
GI50 [53]: > 100 µM (inactive)
GI50 [54]: > 100 µM (inactive)
GI50 [55]: > 100 µM (inactive)

CCNC(=O)C(O)C1(O)CCC2[C@@H]3CCC4=CC(=O)C=C[C@]4(C)C3[C@@H](O)C[C@@]21C (some centres not stated)
GI50 [1]: > 100 µM (inactive)
GI50 [3]: > 100 µM (inactive)
GI50 [4]: > 100 µM (inactive)
GI50 [5]: > 100 µM (inactive)
GI50 [6]: > 100 µM (inactive)
GI50 [7]: > 100 µM (inactive)
GI50 [8]: > 100 µM (inactive)
GI50 [9]: 53.2 µM (inactive)
GI50 [10]: > 100 µM (inactive)
GI50 [11]: > 100 µM (inactive)
GI50 [13]: > 100 µM (inactive)
GI50 [14]: > 100 µM (inactive)
GI50 [15]: > 100 µM (inactive)
GI50 [16]: > 100 µM (inactive)
GI50 [17]: > 100 µM (inactive)
GI50 [18]: > 100 µM (inactive)
GI50 [19]: > 100 µM (inactive)
GI50 [20]: > 100 µM (inactive)
GI50 [56]: > 100 µM (inactive)
GI50 [21]: > 100 µM (inactive)
GI50 [22]: > 95.1 µM (inactive)
GI50 [23]: > 100 µM (inactive)
GI50 [24]: > 100 µM (inactive)
GI50 [25]: 60.7 µM (inactive)
GI50 [26]: > 100 µM (inactive)
GI50 [27]: > 100 µM (inactive)
GI50 [28]: > 100 µM (inactive)
GI50 [29]: > 49.4 µM (inactive)
GI50 [30]: > 100 µM (inactive)
GI50 [31]: 33.3 µM (inactive)
GI50 [32]: > 91 µM (inactive)
GI50 [33]: > 100 µM (inactive)
GI50 [34]: > 100 µM (inactive)
GI50 [57]: 52.1 µM (inactive)
GI50 [58]: > 100 µM
GI50 [35]: > 100 µM (inactive)
GI50 [36]: > 100 µM (inactive)
GI50 [37]: > 100 µM (inactive)
GI50 [38]: > 87.5 µM (inactive)
GI50 [39]: 29.8 µM (inactive)
GI50 [59]: 63 µM (inactive)
GI50 [40]: > 100 µM (inactive)
GI50 [41]: > 100 µM (inactive)
GI50 [42]: 86.9 µM (inactive)
GI50 [43]: > 100 µM (inactive)
GI50 [44]: > 100 µM (inactive)
GI50 [45]: > 100 µM (inactive)
GI50 [46]: > 100 µM (inactive)
GI50 [47]: > 100 µM (inactive)
GI50 [48]: 22.4 µM (inactive)
GI50 [49]: > 100 µM (inactive)
GI50 [50]: 32.8 µM (inactive)
GI50 [51]: > 100 µM (inactive)
GI50 [52]: > 100 µM (inactive)
GI50 [54]: > 100 µM (inactive)
GI50 [55]: > 100 µM (inactive)

O=C1CCC2(c3ccc(Cl)cc3)Nc3cc(Cl)ccc3N12 (configuration not stated)
GI50 [1]: 15.2 µM (inactive)
GI50 [2]: 12.4 µM (inactive)
GI50 [3]: 10.2 µM (inactive)
GI50 [4]: 2.3 µM (inactive)
GI50 [5]: 10.6 µM (inactive)
GI50 [6]: 10.9 µM (inactive)
GI50 [7]: 10.2 µM (inactive)
GI50 [8]: 10.4 µM (inactive)
GI50 [9]: 15.3 µM (inactive)
GI50 [10]: 15.5 µM (inactive)
GI50 [11]: 12.4 µM (inactive)
GI50 [12]: 12.1 µM (inactive)
GI50 [14]: 2.31 µM (inactive)
GI50 [15]: 13.6 µM (inactive)
GI50 [16]: 14.7 µM (inactive)
GI50 [17]: 12.4 µM (inactive)
GI50 [18]: 15.2 µM (inactive)
GI50 [19]: 5.75 µM (inactive)
GI50 [20]: 7.06 µM (inactive)
GI50 [56]: 11.4 µM (inactive)
GI50 [21]: 8.97 µM (inactive)
GI50 [22]: 12.1 µM (inactive)
GI50 [23]: 15.6 µM (inactive)
GI50 [24]: 10.4 µM (inactive)
GI50 [25]: 7.4 µM (inactive)
GI50 [27]: 10.4 µM (inactive)
GI50 [28]: 12 µM (inactive)
GI50 [29]: 12.4 µM (inactive)
GI50 [30]: 12.8 µM (inactive)
GI50 [31]: 1.25 µM (inactive)
GI50 [32]: 2.31 µM (inactive)
GI50 [33]: 6.14 µM (inactive)
GI50 [34]: 12.2 µM (inactive)
GI50 [58]: 12.2 µM
GI50 [36]: 10.8 µM (inactive)
GI50 [37]: 13.6 µM (inactive)
GI50 [39]: 1.15 µM (inactive)
GI50 [59]: 5.9 µM (inactive)
GI50 [40]: 11.9 µM (inactive)
GI50 [42]: 11.5 µM (inactive)
GI50 [44]: 9.04 µM (inactive)
GI50 [45]: 15 µM (inactive)
GI50 [46]: 4.7 µM (inactive)
GI50 [47]: 16.4 µM (inactive)
GI50 [48]: 16.4 µM (inactive)
GI50 [49]: 15.3 µM (inactive)
GI50 [50]: 2.42 µM (inactive)
GI50 [51]: 10.7 µM (inactive)
GI50 [52]: 7.76 µM (inactive)
GI50 [54]: 11.7 µM (inactive)
GI50 [55]: 17.6 µM (inactive)
